We go through three compounds from article PMC5885031, “Chlamydia trachomatis dapF Encodes a Bifunctional Enzyme Capable of Both D-Glutamate Racemase and Diaminopimelate Epimerase Activities” (mBio, 2018).

Each structure is given as a SMILES string.

Common to all, as to assay type: biochemical
In assay [1] the target is T1, DapFCT-His (chlamydial DapF, DAP epimerase) (Chlamydia trachomatis, UniProt B0B802).
T1 construct: 6-His tag at 5' end (N-terminal), tag not removed; pTBSG vector, E. coli BL21(DE3); Ni-NTA purified; ~32 kDa
T1 sequence (B0B802 1-275): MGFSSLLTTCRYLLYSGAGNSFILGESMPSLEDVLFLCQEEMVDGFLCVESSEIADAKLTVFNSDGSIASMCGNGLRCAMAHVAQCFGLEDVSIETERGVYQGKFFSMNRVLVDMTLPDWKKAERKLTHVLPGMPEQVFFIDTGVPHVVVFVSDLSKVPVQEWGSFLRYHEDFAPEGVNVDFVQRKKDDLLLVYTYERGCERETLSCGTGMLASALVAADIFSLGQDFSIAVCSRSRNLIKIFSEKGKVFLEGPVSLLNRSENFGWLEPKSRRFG
The assay can be described thus: glutamate racemase assay coupled to L-glutamate dehydrogenase (NADPH, […] nm). Conditions: 20 mM D-Glu, 10 uM PLP, 10 mM MgCl2, 20 mM Tris-Cl pH 8.0, 37 C; racemization to L-Glu.

Assay [2] addresses T1, DapFCT-His (chlamydial DapF, DAP epimerase). The description is as above. The note with it: 10 mM D-Glu as substrate, 10 uM PLP, 10 mM MgCl2, 20 mM Tris-Cl pH 8.0, 37 C; competing substrate.
Assay [3] has the same target. The assay can be described thus: glutamate racemase coupled assay with and without PLP. The note with it: 10 uM PLP, D-Glu as substrate, 10 mM MgCl2, 20 mM Tris-Cl pH 8.0, 37 C; required for racemase activity.

Regarding `N[C@H](CCC(=O)O)C(=O)O` [D-Glu], the “glutamate racemase assay coupled to L-glutamate dehydrogenase (NADPH, 340 nm)” value in assay [1] is “Purified DapFCT-His was assayed for glutamate racemase activity with D-Glu as the substrate”.

As to `N[C@@H](CCC[C@H](N)C(=O)O)C(=O)O` [L,L-DAP], in assay [2], the “% decrease of glutamate racemase activity at 10 mM L,L-DAP” value is 47%.

With `Cc1ncc(COP(=O)(O)O)c(C=O)c1O` [pyridoxal phosphate], the “glutamate racemase coupled assay with and without PLP” value in assay [3] is given as “D-Glu racemization to L-Glu was found to be PLP dependent (Fig. 4a)”.
